Experimental findings from US6916798B2, “Inhibitors of GSK-3 and uses thereof” (Vertex Pharmaceuticals Incorporated, priority 2001, dated 2005) are described below.

A value given as a limit tells only on which side of the number the result lay.

What all share (type): biochemical
One assay deals with T1, Aurora-2 (Homo sapiens, UniProt O14965).
T1 sequence (O14965 1-403): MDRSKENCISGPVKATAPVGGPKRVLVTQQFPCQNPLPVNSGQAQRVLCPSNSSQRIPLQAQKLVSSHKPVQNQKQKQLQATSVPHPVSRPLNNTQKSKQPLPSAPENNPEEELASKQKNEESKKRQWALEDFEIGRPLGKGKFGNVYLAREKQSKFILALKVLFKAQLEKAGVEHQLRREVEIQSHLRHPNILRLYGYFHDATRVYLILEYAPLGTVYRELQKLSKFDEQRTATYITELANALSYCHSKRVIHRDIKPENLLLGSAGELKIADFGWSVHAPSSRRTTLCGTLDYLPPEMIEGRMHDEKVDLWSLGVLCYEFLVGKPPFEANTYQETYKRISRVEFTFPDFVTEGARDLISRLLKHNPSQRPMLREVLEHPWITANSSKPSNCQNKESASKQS
The assay is described as follows: Ki determination for the inhibition of Aurora-2, standard coupled enzyme assay. Particulars: 70 nM Aurora-2, 800 μM peptide LRRASLG, 30° C. How it is done:
Compounds were screened in the following manner for their ability to inhibit Aurora-2 using a standard coupled enzyme assay (Fox et al. (1998) Protein Sci. 7, 2249).
(§1) To an assay stock buffer solution containing 0.1M HEPES 7.5, 10 mM MgCl2, 1 mM DTT, 25 mM NaCl, 2.5 mM phosphoenolpyruvate, […], 30 mg/ml pyruvate kinase, 10 mg/ml lactate dehydrogenase, 40 mM ATP, and 800 μM peptide (LRRASLG, American Peptide, Sunnyvale, Calif.) was added a DMSO solution of a compound of the present invention to a final concentration of 30 μM. The resulting mixture was incubated at 30° C. for 10 min. The reaction was initiated by the addition of 10 μL of Aurora-2 stock solution to give a final concentration of 70 nM in the assay. The rates of reaction were obtained by monitoring absorbance at 340 nm over a 5 minute read time at 30° C. using a BioRad Ultramark plate reader (Hercules, Calif.). The Ki values were determined from the rate data as a function of inhibitor concentration.

The next assay has as its target T2, GSK-3β (AA 1-420) (Homo sapiens, UniProt P49841).
T2 construct: GSK-3β (AA 1-420)
The assay is described as follows: Ki determination for the inhibition of GSK-3, standard coupled enzyme system. Conditions: 20 μM ATP, 300 μM peptide, 20 nM GSK-3β, 30° C.; read-out: Ki values for GSK-3. How it is done:
Final substrate concentrations in the assay were 20 μM ATP (Sigma Chemicals, St Louis, Mo.) and 300 μM peptide (HSSPHQS(PO3H2)EDEEE, American Peptide, Sunnyvale, Calif.). Reactions were carried out at 30° C. and 20 nM GSK-3β. Final concentrations of the components of the coupled enzyme system were 2.5 mM phosphoenolpyruvate, 300 μM NADH, 30 μg/ml pyruvate kinase and 10 μg/ml lactate dehydrogenase.
An assay stock buffer solution was prepared containing all of the reagents listed above with the exception of ATP and the test compound of interest. The assay stock buffer solution (175 μl) was incubated in a 96 well plate with 5 μl of the test compound of interest at final concentrations spanning 0.002 μM to 30 μM at 30 ° C. for 10 min. […] The reaction was initiated by the addition of 20 μl of ATP (final concentration 20 μM). Rates of reaction were obtained using a Molecular Devices Spectramax plate reader (Sunnyvale, Calif.) over 10 min at 30° C. The Ki values were determined from the rate data as a function of inhibitor concentration.

The next assay has as its target CDK-2/Cyclin A (Homo sapiens, UniProt P24941). As to the kind of experiment: Inhibition of CDK-2, standard coupled enzyme assay. Conditions: 25 nM CDK-2/Cyclin A, 100 μM peptide, 30° C. The method, then:
Compounds were screened in the following manner for their ability to inhibit CDK-2 using a standard coupled enzyme assay (Fox et al (1998) Protein Sci 7, 2249).
as §1, with “[…], […]” for “dehydrogenase, 40”, “and 100” for “and 800”, “peptide ([…],” for “peptide (LRRASLG,”, “of CDK-2/Cyclin A” for “of Aurora-2”, “of 25” for “of 70”, “a 5-minute” for “a 5 minute”

T2 sequence (P49841 whole entry, the tested form may be a part): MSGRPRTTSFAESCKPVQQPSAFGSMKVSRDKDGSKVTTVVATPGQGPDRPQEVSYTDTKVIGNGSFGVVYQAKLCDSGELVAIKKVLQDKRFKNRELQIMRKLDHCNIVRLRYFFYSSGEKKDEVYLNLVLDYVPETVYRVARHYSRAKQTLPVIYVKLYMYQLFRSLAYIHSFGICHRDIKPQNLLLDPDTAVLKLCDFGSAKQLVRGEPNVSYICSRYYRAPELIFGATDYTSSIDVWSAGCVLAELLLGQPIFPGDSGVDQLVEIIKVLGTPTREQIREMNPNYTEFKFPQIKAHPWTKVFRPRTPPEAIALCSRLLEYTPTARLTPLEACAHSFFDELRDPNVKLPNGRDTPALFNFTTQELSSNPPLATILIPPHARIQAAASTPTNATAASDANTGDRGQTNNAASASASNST

As for `COc1ccc(N/N=C2\C(=O)NN=C2c2cc(OC)c(OC)c(OC)c2)cc1` [Compound 22], the Ki at Aurora-2 and on GSK-3β (AA 1-420) was under 100 nM throughout.

On to `COc1cc(C2=NNC(=O)C2=NNc2ccc(Cl)cc2)cc(OC)c1OC` [Compound 23], for which the inhibitory constant (Ki) at Aurora-2 and on GSK-3β (AA 1-420) was under 100 nM throughout.

With `CCN(CC)c1ccc(N/N=C2\C(=O)NN=C2c2ccc(OC)c(OC)c2)cc1` [Compound 37], the Ki on Aurora-2 and at GSK-3β (AA 1-420) was under 100 nM each time.

On to `COc1ccc(C2=NNC(=O)/C2=N\Nc2ccc(Cl)cc2)cc1` [Compound 43], for which the Ki on Aurora-2 is 100 to 1000 nM; at GSK-3β (AA 1-420), under 100 nM.

Regarding `COc1ccc(N/N=C2\C(=O)NN=C2c2ccc(OC)c(OC)c2)cc1` [Compound 47], the Ki on Aurora-2 and at GSK-3β (AA 1-420) was under 100 nM each time.

Take `COc1ccc(C2=NNC(=O)/C2=N\Nc2ccc(N(C)C)cc2)cc1OC` [Compound 52]: the Ki at Aurora-2 and at GSK-3β (AA 1-420) was under 100 nM each time.

Regarding `COc1ccc(C2=NNC(=O)/C2=N\Nc2ccc(C#N)cc2)cc1OC` [Compound 58], the Ki on Aurora-2 is 100 to 1000 nM; on GSK-3β (AA 1-420), under 100 nM.

For `COc1ccc(C2=NNC(=O)/C2=N\Nc2ccc(N3CCOCC3)cc2)cc1` [Compound 60], the Ki was 100 to 1000 nM at Aurora-2 and under 100 nM at GSK-3β (AA 1-420).

For the molecule `COc1ccc(C2=NNC(=O)/C2=N\Nc2ccc(N3CCOCC3)cc2)cc1OC` [Compound 61], the Ki on Aurora-2 and at GSK-3β (AA 1-420) was under 100 nM throughout.

As for `COc1cccc(C2=NNC(=O)/C2=N\Nc2ccc(N3CCOCC3)cc2)c1` [Compound 62], the Ki on Aurora-2 is 100 to 1000 nM; at GSK-3β (AA 1-420) it was under 100 nM.

On to `COc1ccc(C2=NNC(=O)/C2=N\Nc2cccc(Cl)c2)cc1OC` [Compound 70], for which the Ki at Aurora-2 is 100 to 1000 nM; on GSK-3β (AA 1-420) it was under 100 nM.

Consider `COc1cccc(N/N=C2\C(=O)NN=C2c2ccc(OC)c(OC)c2)c1` [Compound 73], for which the inhibition constant Ki on Aurora-2 and on GSK-3β (AA 1-420) was under 100 nM throughout.

Turning to `COc1ccc(C2=NNC(=O)C2=NNc2ccc(Oc3ccccc3)cc2)cc1OC` [Compound 86], the Ki on Aurora-2 and at GSK-3β (AA 1-420) was under 100 nM throughout.

With `COc1ccc(C2=NNC(=O)C2=CNc2ccc(Oc3ccccc3)cc2)cc1` [Compound 91], the results for the Ki on CDK-2/Cyclin A and at GSK-3β (AA 1-420) were 1000 to 20000 nM and 100 to 1000 nM, respectively.

Regarding `COc1ccc(C2=NNC(=O)C2=CNc2cccc(OCc3ccccc3)c2)cc1OC` [Compound 92, 4-[(3-Benzyloxy-phenylamino)-methylene]-5-(3,4-dimethoxy-phenyl)-2,4-dihydro-pyrazol-3-one], the values for the Ki on CDK-2/Cyclin A and on GSK-3β (AA 1-420) were 1000 to 20000 nM and 100 to 1000 nM, respectively.

As for `COc1ccc(C2=NNC(=O)C2=CNc2cccc(C(=O)c3ccccc3)c2)cc1` [Compound 93], the Ki on CDK-2/Cyclin A was 1000 to 20000 nM; on GSK-3β (AA 1-420) it was 100 to 1000 nM.

For the molecule `COc1ccc(C2=NNC(=O)C2=CNc2cccc(S(N)(=O)=O)c2)cc1OC` [Compound 95, 3-{[3-(3,4-Dimethoxy-phenyl)-5-oxo-1,5-dihydro-pyrazol-4-ylidenemethyl]-amino}-benzenesulfonamide], the Ki on CDK-2/Cyclin A is 1000 to 20000 nM; at GSK-3β (AA 1-420) it was 100 to 1000 nM.

On to `COc1ccc(C2=NNC(=O)C2=CNc2ccc3c(c2)NCC3)cc1` [Compound 96], for which the Ki lay in the range of 1000 to 20000 nM at CDK-2/Cyclin A and 100 to 1000 nM at GSK-3β (AA 1-420).

Take `COc1ccc(C2=NNC(=O)C2=CNc2ccc3c(c2)N(C(C)=O)CC3)cc1` [Compound 97]: the Ki on CDK-2/Cyclin A is 1000 to 20000 nM; at GSK-3β (AA 1-420), under 100 nM.

Take `COc1ccc(C2=NNC(=O)C2=CNc2ccc(OC)c(O)c2)cc1` [Compound 98]: the Ki at CDK-2/Cyclin A was 100 to 1000 nM; on GSK-3β (AA 1-420) it was under 100 nM.

`COc1ccc(C2=NNC(=O)C2=NNc2ccc(OC)c(-c3cccnc3)c2)cc1OC` [Compound 106, 5-(3,4-Dimethoxy-phenyl)-4-[(4-methoxy-3-pyridin-3-yl-phenyl)-hydrazono]-2,4-dihydro-pyrazol-3-one]: the Ki is 1000 to 20000 nM at CDK-2/Cyclin A and under 100 nM at GSK-3β (AA 1-420).

Regarding `CCOc1ccc(C2=NNC(=O)C2=NNc2ccc(N(CC)CC)cc2)cc1OCC` [Compound 114, 5-(3,4-Diethoxy-phenyl)-4-[(4-diethylamino-phenyl)-hydrazono]-2,4-dihydro-pyrazol-3-one], the Ki on CDK-2/Cyclin A is 1000 to 20000 nM; on Aurora-2, under 100 nM.

For the molecule `CCOc1ccc(C2=NNC(=O)C2=NNc2ccc(N(CC)CCO)cc2)cc1OCC` [Compound 115, 5-(3,4-Diethoxy-phenyl)-4-({4-[ethyl-(2-hydroxy-ethyl)-amino]-phenyl}-hydrazono)-2,4-dihydro-pyrazol-3-one], the Ki at CDK-2/Cyclin A is 1000 to 20000 nM; on Aurora-2 it was under 100 nM.

As to `CCOc1ccc(C2=NNC(=O)C2=NNc2ccc(N3CCOCC3)cc2)cc1OCC` [Compound 116, 5-(3,4-Diethoxy-phenyl)-4-[(4-morpholin-4-yl-phenyl)-hydrazono]-2,4-dihydro-pyrazol-3-one], the Ki is 1000 to 20000 nM on CDK-2/Cyclin A and under 100 nM on Aurora-2.

Regarding `COc1ccc(C2=NNC(=O)C2=NNc2ccc(OCCCN(C)CCO)c(-c3ccccc3)c2)cc1OC` [Compound 120, 5-(3,4-dimethoxy-phenyl)-4-[(6-{3-[(2-hydroxy-ethyl)-methyl-amino]-propoxy}-biphenyl-3-yl)-hydrazono]-2,4-dihydro-pyrazol-3-one], the Ki at CDK-2/Cyclin A is 1000 to 20000 nM; on GSK-3β (AA 1-420) it was under 100 nM.

As for `COc1ccc(C2=NNC(=O)C2=NNc2ccc(OCCCN(C)C)c(-c3ccccc3)c2)cc1OC` [Compound 121, 5-(3,4-Dimethoxy-phenyl)-4-{[6-(3-dimethylamino-propoxy)-biphenyl-3-yl]-hydrazono}-2,4-dihydro-pyrazol-3-one], the Ki on CDK-2/Cyclin A was 1000 to 20000 nM; on GSK-3β (AA 1-420), under 100 nM.

In the case of `COc1ccc(C2=NNC(=O)C2=NNc2ccc3c(c2)C(=O)c2ccccc2-3)cc1OC` [Compound 207], the Ki at GSK-3β (AA 1-420) was under 100 nM.

As for `O=C1NN=C(c2ccc(N3CCOCC3)cc2)C1=NNc1ccc2c(c1)C(=O)c1ccccc1-2` [Compound 208], the Ki at GSK-3β (AA 1-420) was under 100 nM.

Consider `COc1ccc(C2=NNC(=O)C2=NNc2ccc3c(c2)OCO3)cc1` [Compound 213], for which the Ki at GSK-3β (AA 1-420) was under 100 nM.

As for `CCn1c2ccccc2c2cc(NN=C3C(=O)NN=C3c3ccc(OC)cc3)ccc21` [Compound 217], the Ki on GSK-3β (AA 1-420) was under 100 nM.

Regarding `CCn1c2ccccc2c2cc(NN=C3C(=O)NN=C3c3ccc(OC)c(OC)c3)ccc21` [Compound 218], on GSK-3β (AA 1-420), the Ki is under 100 nM.

On to `COc1ccc(C2=NNC(=O)C2=NNc2ccc(OC)c(-c3ccccc3)c2)cc1` [Compound 220], for which, at GSK-3β (AA 1-420), the Ki was under 100 nM.

Turning to `CCN(CCO)c1ccc(NN=C2C(=O)NN=C2c2cc(OC)c(OC)c(OC)c2)cc1` [Compound 223], the Ki at Aurora-2 and at GSK-3β (AA 1-420) was under 100 nM throughout.

As to `COc1ccc(Nc2ccc(NC=C3C(=O)NN=C3c3ccc(OC)cc3)cc2)cc1` [Compound 224], the Ki on GSK-3β (AA 1-420) fell in the range of 100 to 1000 nM.

Regarding `COc1cc(C2=NNC(=O)C2=NNc2ccc(OC)c(Br)c2)ccc1O` [Compound 225], the Ki at GSK-3β (AA 1-420) was under 100 nM.

On to `COc1cc(C2=NNC(=O)C2=CNc2cc(C)[nH]n2)cc(OC)c1OC` [Compound 227], for which the Ki on GSK-3β (AA 1-420) was 100 to 1000 nM.
